Assay results published in patent publication US9745283B2, “Uracil derivatives as AXL and c-MET kinase inhibitors” (priority 2011, dated 2017).

Key:
[1] = molecular target: recombinant human baculovirus-expressed AXL (Homo sapiens (Human), UniProt P30530); test: AXL Kinase Assay (HTRF KinEASE); type: biochemical; conditions: average of two or more determinations
[2] = molecular target: recombinant human baculovirus-expressed cMET (Homo sapiens (Human), UniProt P08581); test: C-MET Kinase Assay (HTRF KinEASE); type: biochemical; conditions: average of two or more determinations; read-out: c-MET IC50
In short: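 HTRF KinEASE format with recombinant human baculovirus-expressed cMET at 8 ng/mL, biotinylated peptide at 0.1 μM and ATP at 0.02 μM. IC50 came from percent control activity versus log concentration, fitted by nonlinear regression to a variable-slope sigmoidal equation with bottom fixed at 0 and top at 100.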

Row | SMILES | IC50 [1] | IC50 [2]
1 | CCn1c(C)c(C(=O)Nc2ccc(Oc3ccnc4cc(OC)c(OC)cc34)c(F)c2)c(=O)n(-c2ccc(F)cc2)c1=O [Example 32, 1-Ethyl-3-(4-fluorophenyl)-6-methyl-2,4-dioxo-1,2,3,4-tetrahydropyrimidine-5-carboxylic acid [4-(6,7-dimethoxyquinolin-4-yloxy)-3-fluorophenyl]-amide] | < 10 nM | < 10 nM
2 | CCn1cc(C(=O)Nc2cc(F)c(Oc3ccnc4cc(OC)c(OC)cc34)c(F)c2)c(=O)n(-c2ccc(F)cc2)c1=O [Example 90, 1-Ethyl-3-(4-fluoro-phenyl)-2,4-dioxo-1,2,3,4-tetrahydro-pyrimidine-5-carboxylic acid [4-(6,7-dimethoxy-quinolin-4-yloxy)-3,5-difluoro-phenyl]-amide] | < 10 nM | 10 to 100 nM
3 | COc1cc2nccc(Oc3ccc(NC(=O)c4nn(C(C)C)c(=O)n(-c5ccc(F)cc5)c4=O)nc3)c2cc1OC [Example 110, 4-(4-Fluoro-phenyl)-2-isopropyl-3,5-dioxo-2,3,4,5-tetrahydro-[1,2,4]triazine-6-carboxylic acid [5-(6,7-dimethoxy-quinolin-4-yloxy)-pyridin-2-yl]-amide] | < 10 nM | 10 to 100 nM
4 | CCn1nc(C(=O)Nc2ccc(Oc3ccnc4cc(OC)ccc34)c(F)c2)c(=O)n(-c2ccc(F)cc2)c1=O [Example 171, 2-Ethyl-4-(4-fluoro-phenyl)-3,5-dioxo-2,3,4,5-tetrahydro-1,2,4-triazine-6-carboxylic acid [3-fluoro-4-(7-methoxy-quinolin-4-yloxy)-phenyl]-amide] | < 10 nM | < 10 nM
5 | COc1cc2nccc(Oc3ccc(NC(=O)c4cn(C(C)C)c(=O)n(-c5ccc(F)cc5)c4=O)nc3)c2cc1OC [Example 34, 3-(4-Fluorophenyl)-1-isopropyl-2,4-dioxo-1,2,3,4-tetrahydropyrimidine-5-carboxylic acid [5-(6,7-dimethoxyquinolin-4-yloxy)-pyridin-2-yl]-amide] | < 10 nM | 10 to 100 nM
6 | COc1cc2nccc(Oc3ccc(NC(=O)c4cn(CC(=O)N5CCCC5)c(=O)n(-c5ccc(F)cc5)c4=O)cc3F)c2cc1OC [Example 82, 3-(4-Fluoro-phenyl)-2,4-dioxo-1-(2-oxo-2-pyrrolidin-1-yl-ethyl)-1,2,3,4-tetrahydro-pyrimidine-5-carboxylic acid [4-(6,7-dimethoxy-quinolin-4-yloxy)-3-fluoro-phenyl]-amide] | < 10 nM | 10 to 100 nM
7 | COc1cc2nccc(Oc3ccc(NC(=O)c4cn(CCN5CCOCC5)c(=O)n(-c5ccc(F)cc5)c4=O)cc3F)c2cc1OC [Example 16, 3-(4-Fluorophenyl)-1-(2-morpholin-4-yl-ethyl)-2,4-dioxo-1,2,3,4-tetrahydropyrimidine-5-carboxylic acid [4-(6,7-dimethoxyquinolin-4-yloxy)-3-fluorophenyl]-amide] | < 10 nM | < 10 nM
8 | COc1cc2nccc(Oc3ccc(NC(=O)c4cn(C[C@H](O)CO)c(=O)n(-c5ccc(F)cc5)c4=O)cc3F)c2cc1OC [Example 54, 1-((S)-2,3-Dihydroxypropyl)-3-(4-fluorophenyl)-2,4-dioxo-1,2,3,4-tetrahydropyrimidine-5-carboxylic acid [4-(6,7-dimethoxyquinolin-4-yloxy)-3-fluorophenyl]-amide] | < 10 nM | 10 to 100 nM
9 | COc1cc2nccc(Oc3ccc(NC(=O)c4cn(CCN(C)C)c(=O)n(-c5ccc(F)cc5)c4=O)cc3F)c2cc1OC [Example 20, 1-(2-Dimethylaminoethyl)-3-(4-fluorophenyl)-2,4-dioxo-1,2,3,4-tetrahydropyrimidine-5-carboxylic acid [4-(6,7-dimethoxyquinolin-4-yloxy)-3-fluorophenyl]-amide] | < 10 nM | 10 to 100 nM
10 | CCCn1cc(C(=O)Nc2ccc(C(=O)c3ccnc4cc(OC)c(OC)cc34)c(F)c2)c(=O)n(-c2ccc(F)cc2)c1=O [Example 102, 3-(4-Fluoro-phenyl)-2,4-dioxo-1-propyl-1,2,3,4-tetrahydro-pyrimidine-5-carboxylic acid [4-(6,7-dimethoxy-quinoline-4-carbonyl)-3-fluoro-phenyl]-amide] | < 10 nM | < 10 nM
11 | C=CCn1cc(C(=O)Nc2ccc(Oc3ccnc4cc(OC)c(OC)cc34)cc2F)c(=O)n(-c2ccc(F)cc2)c1=O [Example 88, 1-Allyl-3-(4-fluoro-phenyl)-2,4-dioxo-1,2,3,4-tetrahydro-pyrimidine-5-carboxylic acid [4-(6,7-dimethoxy-quinolin-4-yloxy)-2-fluoro-phenyl]-amide] | < 10 nM | 10 to 100 nM
12 | COc1cc2nccc(Oc3ccc(NC(=O)c4cn(CCCOCc5ccccc5)c(=O)n(-c5ccc(F)cc5)c4=O)cc3)c2cc1OC [Example 21, 1-(3-Benzyloxypropyl)-3-(4-fluorophenyl)-2,4-dioxo-1,2,3,4-tetrahydropyrimidine-5-carboxylic acid [4-(6,7-dimethoxyquinolin-4-yloxy)phenyl]-amide] | < 10 nM | 10 to 100 nM
13 | COc1cc2nccc(Oc3ccc(NC(=O)c4nn(C)c(=O)n(-c5ccc(F)cc5)c4=O)cc3F)c2cc1OC [Example 104, 4-(4-Fluorophenyl)-2-methyl-3,5-dioxo-2,3,4,5-tetrahydro-[1,2,4]triazine-6-carboxylic acid [4-(6,7-dimethoxy-quinolin-4-yloxy)-3-fluoro-phenyl]-amide] | < 10 nM | < 10 nM
14 | Cn1cc(C(=O)Nc2ccc(Oc3ccnc4cc5c(cc34)OCO5)c(F)c2)c(=O)n(-c2ccc(F)cc2)c1=O [Example 131, 3-(4-Fluoro-phenyl)-1-methyl-2,4-dioxo-1,2,3,4-tetrahydro-pyrimidine-5-carboxylic acid [4-([1,3]dioxolo[4,5-g]quinolin-8-yloxy)-3-fluoro-phenyl]-amide] | < 10 nM | 10 to 100 nM
15 | COc1cc2nccc(Cc3ccc(NC(=O)c4cn(C)c(=O)n(-c5ccc(F)cc5)c4=O)cc3F)c2cc1OC [Example 58, 3-(4-fluoro-phenyl)-1-methyl-2,4-dioxo-1,2,3,4-tetrahydro-pyrimidine-5-carboxylic acid [4-(6,7-dimethoxy-quinolin-4-ylmethyl)-3-fluoro-phenyl]-amide] | < 10 nM | 10 to 100 nM
16 | COc1cc(Oc2ccnc3cc(OC)c(OC)cc23)ccc1NC(=O)c1cn(C(C)C)c(=O)n(-c2ccc(F)cc2)c1=O [Example 145, 1-Isopropyl-3-(4-fluoro-phenyl)-2,4-dioxo-1,2,3,4-tetrahydro-pyrimidine-5-carboxylic acid [4-(6,7-dimethoxy-quinolin-4-yloxy)-2-methoxy-phenyl]-amide] | < 10 nM | 10 to 100 nM
17 | CCn1cc(C(=O)Nc2ccc(Oc3ccnc4cc(OC)c(OC)cc34)c(OC)c2)c(=O)n(-c2ccc(F)cc2)c1=O [Example 151, 1-Ethyl-3-(4-fluoro-phenyl)-2,4-dioxo-1,2,3,4-tetrahydro-pyrimidine-5-carboxylic acid [4-(6,7-dimethoxy-quinolin-4-yloxy)-3-methoxy-phenyl]-amide] | < 10 nM | 10 to 100 nM
18 | COc1cc2nccc(Oc3ccc(NC(=O)c4cn(Cc5ncco5)c(=O)n(-c5ccc(F)cc5)c4=O)cc3F)c2cc1OC [Example 72, 3-(4-Fluoro-phenyl)-1-oxazol-2-ylmethyl-2,4-dioxo-1,2,3,4-tetrahydro-pyrimidine-5-carboxylic acid [4-(6,7-dimethoxy-quinolin-4-yloxy)-3-fluoro-phenyl]-amide] | < 10 nM | 10 to 100 nM
19 | COc1cc2nccc(Oc3ccc(NC(=O)c4cn(CCCO)c(=O)n(-c5ccc(F)cc5)c4=O)cc3)c2cc1OC [Example 52, 3-(4-Fluorophenyl)-1-(3-hydroxypropyl)-2,4-dioxo-1,2,3,4-tetrahydropyrimidine-5-carboxylic acid [4-(6,7-dimethoxyquinolin-4-yloxy)phenyl]-amide] | < 10 nM | 10 to 100 nM
20 | CCOc1cc2nccc(Oc3ccc(NC(=O)c4cn(CC)c(=O)n(-c5ccc(F)cc5)c4=O)cc3F)c2cc1OCC [Example 33, 1-Ethyl-3-(4-fluorophenyl)-2,4-dioxo-1,2,3,4-tetrahydropyrimidine-5-carboxylic acid [4-(6,7-diethoxyquinolin-4-yloxy)-3-fluorophenyl]-amide] | < 10 nM | 10 to 100 nM
21 | CCn1cc(C(=O)Nc2ccc(Oc3ccnc4cc(OC)c(OC)cc34)cc2)c(=O)n(-c2ccc(F)cc2)c1=O [Example 28, 1-Ethyl-3-(4-fluorophenyl)-2,4-dioxo-1,2,3,4-tetrahydropyrimidine-5-carboxylic acid [4-(6,7-dimethoxyquinolin-4-yloxy)-phenyl]-amide] | < 10 nM | < 10 nM
22 | COc1cc2nccc(Oc3ccc(NC(=O)c4c[nH]c(=O)n(-c5ccc(F)cc5)c4=O)cc3)c2cc1OC [Example 24, 3-(4-Fluorophenyl)-2,4-dioxo-1,2,3,4-tetrahydropyrimidine-5-carboxylic acid [4-(6,7-dimethoxyquinolin-4-yloxy)phenyl]-amide] | < 10 nM | < 10 nM
23 | CCn1cc(C(=O)Nc2ccc(Oc3ccnc4cc(OC)c(OC)cc34)cn2)c(=O)n(-c2ccc(F)cc2)c1=O [Example 31, 1-Ethyl-3-(4-fluorophenyl)-2,4-dioxo-1,2,3,4-tetrahydropyrimidine-5-carboxylic acid [5-(6,7-dimethoxyquinolin-4-yloxy)-pyridin-2-yl]-amide] | < 10 nM | 10 to 100 nM
24 | C#CCn1c(=O)c(C(=O)Nc2ccc(Oc3ccnc4cc(OC)c(OC)cc34)c(F)c2)nn(C)c1=O [Example 115, 2-Methyl-3,5-dioxo-4-prop-2-ynyl-2,3,4,5-tetrahydro-[1,2,4]triazine-6-carboxylic acid [4-(6,7-dimethoxy-uinolin-4-yloxy)-3-fluoro-phenyl]-amide] | < 10 nM | 10 to 100 nM
